Assay results: US8481525B2, “Kinase inhibitors and method of treating cancer with same” (University of Health Network, priority 2009, dated 2013)
Where two headings read alike, the source gives them in different places.

Key:
FLT-3 = FLT-3 (Homo sapiens, UniProt P36888); assay: CEREP HTRF kinase selectivity assay; type: biochemical; conditions: FLT-3, 10 uM
Description: (§3) The inhibitory activity of selected compounds of the invention was evaluated against a panel of 45 different kinase enzymes by CEREP, France. […] The % Inhibition was determined by the formula; % Inhibition=100×(1−(experimental value−background value)/(high activity control−background value)).

JNK 2 = JNK 2 (Homo sapiens, UniProt P45984); assay: CEREP HTRF kinase selectivity assay; type: biochemical; conditions: JNK 2, 10 uM
Description: (§1) The inhibitory activity of selected compounds of the invention was evaluated against a panel of 45 different kinase enzymes by CEREP, France. The assays were performed using standard HTRF assay methods as documented by CEREP against the human orthologues of Ab1 kinase, Akt1/PKBa, AMPKa, BMX kinase (Etk), Brk, CaMK2a, CaMK4, CDC2/CDK1 (cycB), CHK1, CHK2, c-Met kinase, CSK, EphB4 kinase, ERKI, ERK2 (P42mapk), FGFR2 kinase, FGFR4 kinase, FLT-1 kinase (VEGFR1), FLT-3 kinase, Fyn kinase, 1GF1R kinase, IRK (InsR), JNK 2, KDR kinase (VEGFR2), Lck kinase, Lyn kinase, MAPKAPK2, MEK1/MAP2K1, p38a kinase, p38d kinase, p38 g kinase, PDGFRb kinase, PDKI, PKA, PKCa, PKCb1, PKCb2, PKCg, Ret kinase, ROCK2, RSK2, Src kinase, Syk, and TRKA (Table 3). The % Inhibition was determined by the formula; % Inhibition=100×(1−(experimental value−background value)/(high activity control−background value)).

PDK1 = PDK1 (Homo sapiens, UniProt O15530); assay: CEREP HTRF kinase selectivity assay; type: biochemical; conditions: PDK1, 10 uM
Description: as §1

CHK2 = molecular target: T1, CHK2 (Homo sapiens, UniProt O96017); assay: CEREP HTRF kinase selectivity assay; type: biochemical; conditions: CHK2, 10 uM
T1 construct: CEREP
Description: as §1

RSK2 = RSK2 (Homo sapiens, UniProt P51812); assay: CEREP HTRF kinase selectivity assay; type: biochemical; conditions: RSK2, 10 uM
Description: as §1

PKA = PKA (Homo sapiens, UniProt P17612); assay: CEREP HTRF kinase selectivity assay; type: biochemical
Description: as §1

c-Met = molecular target: T2, c-Met (Homo sapiens, UniProt P08581); assay: CEREP HTRF kinase selectivity assay; type: biochemical
T2 construct: CEREP
Description: as §1

Lyn = Lyn (Homo sapiens, UniProt P07948); assay: CEREP HTRF kinase selectivity assay; type: biochemical
Description: as §1

p38delta = p38delta (Homo sapiens, UniProt O15264); assay: CEREP HTRF kinase selectivity assay; type: biochemical
Description: as §1

MAPKAPK2 = MAPKAPK2 (Homo sapiens, UniProt P49137); assay: CEREP HTRF kinase selectivity assay; type: biochemical; conditions: MAPKAPK2, 10 uM
Description: as §1

ERK (P42mapk) = molecular target: T3, ERK (P42mapk) (Homo sapiens, UniProt P28482); assay: CEREP HTRF kinase selectivity assay; type: biochemical
T3 construct: CEREP
Description: as §1

Ret = Ret (Homo sapiens, UniProt P07949); assay: CEREP HTRF kinase selectivity assay; type: biochemical
Description: as §1

PKCbeta 2 = PKCbeta 2 (Homo sapiens, UniProt P05771); assay: CEREP HTRF kinase selectivity assay; type: biochemical; conditions: PKCbeta 2, 10 uM
Description: as §1

BMX (Etk) = molecular target: T4, BMX (Etk) (Homo sapiens, UniProt P51813); assay: CEREP HTRF kinase selectivity assay; type: biochemical
T4 construct: CEREP
Description: as §1

CDC2/CDK1 (cycB) = molecular target: T5, CDC2/CDK1 (cycB) (Homo sapiens, UniProt P06493); assay: CEREP HTRF kinase selectivity assay; type: biochemical; conditions: CDC2/CDK1, 10 uM
T5 construct: CEREP
Description: as §1

Lck = Lck (Homo sapiens, UniProt P06239); assay: CEREP HTRF kinase selectivity assay; type: biochemical
Description: as §1

Brk = molecular target: T6, Brk (Homo sapiens, UniProt Q13882); assay: CEREP HTRF kinase selectivity assay; type: biochemical
T6 construct: CEREP
Description: as §1

CHK1 = molecular target: T7, CHK1 (Homo sapiens, UniProt O14757); assay: CEREP HTRF kinase selectivity assay; type: biochemical; conditions: CHK1, 10 uM
T7 construct: CEREP
Description: as §1

Fyn = Fyn (Homo sapiens, UniProt P06241); assay: CEREP HTRF kinase selectivity assay; type: biochemical
Description: as §1

Akt1/PKBalpha = molecular target: T8, Akt1/PKBalpha (Homo sapiens, UniProt P31749); assay: CEREP HTRF kinase selectivity assay; type: biochemical
T8 construct: CEREP
Description: as §1

PKCbeta 1 = PKCbeta 1 (Homo sapiens, UniProt P05771); assay: CEREP HTRF kinase selectivity assay; type: biochemical; conditions: PKCbeta 1, 10 uM
Description: as §1

p38gamma = p38gamma (Homo sapiens, UniProt P53778); assay: CEREP HTRF kinase selectivity assay; type: biochemical
Description: as §1

CSK = molecular target: T9, CSK (Homo sapiens, UniProt P41240); assay: CEREP HTRF kinase selectivity assay; type: biochemical
T9 construct: CEREP
Description: as §1

IRK (InsR) = IRK (InsR) (Homo sapiens, UniProt P06213); assay: CEREP HTRF kinase selectivity assay; type: biochemical
Description: as §1

TRKA = molecular target: T10, TRKA (Homo sapiens, UniProt P04629); assay: CEREP HTRF kinase selectivity assay; type: biochemical
T10 construct: CEREP, France (contract panel)
Description: as §1

IGF1R = IGF1R (Homo sapiens, UniProt P08069); assay: CEREP HTRF kinase selectivity assay; type: biochemical
Description: as §1

PKCgamma = PKCgamma (Homo sapiens, UniProt P05129); assay: CEREP HTRF kinase selectivity assay; type: biochemical
Description: as §1

PKCalpha = PKCalpha (Homo sapiens, UniProt P17252); assay: CEREP HTRF kinase selectivity assay; type: biochemical
Description: as §1

MEK1/MAP2K1 = MEK1/MAP2K1 (Homo sapiens, UniProt Q02750); assay: CEREP HTRF kinase selectivity assay; type: biochemical; conditions: MEK1/MAP2K1, 10 uM
Description: as §1

Src = Src (Homo sapiens, UniProt P12931); assay: CEREP HTRF kinase selectivity assay; type: biochemical
Description: as §1

Abl = molecular target: T11, Abl (Homo sapiens, UniProt P00519); assay: CEREP HTRF kinase selectivity assay; type: biochemical
T11 construct: CEREP
Description: as §1

EphB4 = molecular target: T12, EphB4 (Homo sapiens, UniProt P54760); assay: CEREP HTRF kinase selectivity assay; type: biochemical; conditions: EphB4, 10 uM
T12 construct: CEREP
Description: as §1

CaMK4 = molecular target: T13, CaMK4 (Homo sapiens, UniProt Q16566); assay: CEREP HTRF kinase selectivity assay; type: biochemical; conditions: CaMK4, 10 uM
T13 construct: CEREP
Description: as §1

FGFR4 = molecular target: T14, FGFR4 (Homo sapiens, UniProt P22455); assay: CEREP HTRF kinase selectivity assay; type: biochemical; conditions: FGFR4, 10 uM
T14 construct: CEREP
Description: as §1

PDGFRbeta = PDGFRbeta (Homo sapiens, UniProt P09619); assay: CEREP HTRF kinase selectivity assay; type: biochemical
Description: as §1

ERK1 = molecular target: T15, ERK1 (Homo sapiens, UniProt P27361); assay: CEREP HTRF kinase selectivity assay; type: biochemical; conditions: ERK1, 10 uM
T15 construct: CEREP
Description: as §1

p38alpha = p38alpha (Homo sapiens, UniProt Q16539); assay: CEREP HTRF kinase selectivity assay; type: biochemical
Description: as §1

ROCK2 = ROCK2 (Homo sapiens, UniProt O75116); assay: CEREP HTRF kinase selectivity assay; type: biochemical; conditions: ROCK2, 10 uM
Description: as §1

KDR (VEGFR2) = KDR (VEGFR2) (Homo sapiens, UniProt P35968); assay: CEREP HTRF kinase selectivity assay; type: biochemical
Description: as §3

HUV-EC-C cells = assay: In Vitro Angiogenesis Assay (tube formation); conditions: HUV-EC-C cells on ECMatrix, 4 hr; FIGS. 1 and 2
[1] = system: HCC1954 basal breast cancer cell line; assay: Cell growth inhibition, Sulforhodamine B assay (SRB); type: cell-based; conditions: Homo sapiens, HCC1954, 120 h, read-out: Cell Line GI50 Range HCC-1954
Outline: (§2)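 Cells were exposed to compound for 5 days, then fixed in situ with ice-cold 10% TCA at 4 °C and stained with sulforhodamine B to estimate total protein mass.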

[2] = system: SW620 colon cancer cell line; assay: as above; type: cell-based; conditions: Homo sapiens, SW-620, 120 h, 5 days culture, SRB
Outline: as §2

AMPKalpha = assay: CEREP HTRF kinase selectivity assay; type: biochemical, human
Description: as §1

[3] = system: A549 lung cancer cell line; assay: Cell growth inhibition, Sulforhodamine B assay (SRB); type: cell-based; conditions: Homo sapiens, 120 h; A549 lung cancer cell line; 5 days culture; SRB; read-out: Cell Line GI50 Range A-549
Outline: as §2

[4] = system: MDA-MB-468 basal breast cancer cell line; assay: as above; type: cell-based; conditions: Homo sapiens, 120 h; MDA-MB-468 basal breast cancer cell line; 5 days culture; SRB; read-out: Cell Line GI50 Range MDA-MB-468
Outline: as §2

[5] = system: MCF-7 luminal breast cancer cell line; assay: as above; type: cell-based; conditions: Homo sapiens, MCF7, 120 h; MCF-7 luminal breast cancer cell line; 5 days culture; SRB; read-out: Cell Line GI50 Range MCF-7
Outline: as §2

[6] = system: human mammary epithelial primary cells (HMEC); assay: as above; conditions: 120 h, read-out: Cell Line GI50 Range HMEC
Description: The cells were cultured for 5 days before the Sulforhodamine B assay (SRB) was performed to determine the compound's cell growth inhibition activity.
Sulforhodamine B (purchased from Sigma, Oakville, ON, Canada) is a water-soluble dye that binds to the basic amino acids of the cellular proteins. Thus, colorimetric measurement of the bound dye provides an estimate of the total protein mass that is related to the cell number. the cells are fixed in situ by gently aspirating off the culture media and adding 50 μl ice cold 10% Trichloroacetic Acid (TCA) per well and incubate at 4° C. for 30-60 min, The plates are washed with water five times and allowed to air dry for 5 min. […] Following staining, plates are washed four times with 1% acetic acid to remove unbound dye and then allowed to air dry for 5 min. […] Absorbance is read at 570 nm.
The percentage (%) of relative growth inhibition was calculated by comparing to DMSO treated only cells (100%). GI50's were determined for compounds with cytotoxic activity. The GI50 was calculated using GraphPad PRISM software (GraphPad Software, Inc., San Diego, Calif., USA).

Sequence of KDR (VEGFR2) (P35968 20-1356): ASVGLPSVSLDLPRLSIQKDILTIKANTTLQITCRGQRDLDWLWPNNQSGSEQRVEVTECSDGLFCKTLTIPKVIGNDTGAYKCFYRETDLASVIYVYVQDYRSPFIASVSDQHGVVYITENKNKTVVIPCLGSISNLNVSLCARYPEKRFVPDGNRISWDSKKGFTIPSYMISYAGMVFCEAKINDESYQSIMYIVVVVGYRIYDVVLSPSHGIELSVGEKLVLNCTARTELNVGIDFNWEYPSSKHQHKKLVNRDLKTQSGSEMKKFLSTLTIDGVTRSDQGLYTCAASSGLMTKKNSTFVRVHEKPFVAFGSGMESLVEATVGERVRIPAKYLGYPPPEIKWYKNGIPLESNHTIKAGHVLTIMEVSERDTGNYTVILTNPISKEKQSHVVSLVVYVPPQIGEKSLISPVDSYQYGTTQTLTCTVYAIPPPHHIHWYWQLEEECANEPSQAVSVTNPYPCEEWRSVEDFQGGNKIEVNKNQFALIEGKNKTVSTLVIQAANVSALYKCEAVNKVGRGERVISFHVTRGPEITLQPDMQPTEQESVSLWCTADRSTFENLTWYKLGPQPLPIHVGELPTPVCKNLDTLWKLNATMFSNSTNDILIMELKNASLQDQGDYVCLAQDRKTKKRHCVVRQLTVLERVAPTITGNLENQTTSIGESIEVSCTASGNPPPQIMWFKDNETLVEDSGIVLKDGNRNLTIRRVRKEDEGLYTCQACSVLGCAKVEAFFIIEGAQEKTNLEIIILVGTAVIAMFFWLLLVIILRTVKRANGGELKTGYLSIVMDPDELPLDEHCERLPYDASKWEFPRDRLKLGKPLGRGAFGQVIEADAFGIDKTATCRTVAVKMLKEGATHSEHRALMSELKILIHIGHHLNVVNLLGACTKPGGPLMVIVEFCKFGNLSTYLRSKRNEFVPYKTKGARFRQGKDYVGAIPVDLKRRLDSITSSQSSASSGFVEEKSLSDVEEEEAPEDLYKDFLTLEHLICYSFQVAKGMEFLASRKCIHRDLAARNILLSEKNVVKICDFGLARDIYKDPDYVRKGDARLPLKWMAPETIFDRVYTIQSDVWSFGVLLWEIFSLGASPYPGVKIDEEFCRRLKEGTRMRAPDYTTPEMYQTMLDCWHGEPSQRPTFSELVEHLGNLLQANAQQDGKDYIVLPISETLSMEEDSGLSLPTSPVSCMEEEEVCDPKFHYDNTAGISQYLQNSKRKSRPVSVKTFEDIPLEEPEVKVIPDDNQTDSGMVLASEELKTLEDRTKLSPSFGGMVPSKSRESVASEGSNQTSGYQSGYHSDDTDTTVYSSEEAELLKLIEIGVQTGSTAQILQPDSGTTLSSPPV
Sequence of FLT-3 (P36888 27-993): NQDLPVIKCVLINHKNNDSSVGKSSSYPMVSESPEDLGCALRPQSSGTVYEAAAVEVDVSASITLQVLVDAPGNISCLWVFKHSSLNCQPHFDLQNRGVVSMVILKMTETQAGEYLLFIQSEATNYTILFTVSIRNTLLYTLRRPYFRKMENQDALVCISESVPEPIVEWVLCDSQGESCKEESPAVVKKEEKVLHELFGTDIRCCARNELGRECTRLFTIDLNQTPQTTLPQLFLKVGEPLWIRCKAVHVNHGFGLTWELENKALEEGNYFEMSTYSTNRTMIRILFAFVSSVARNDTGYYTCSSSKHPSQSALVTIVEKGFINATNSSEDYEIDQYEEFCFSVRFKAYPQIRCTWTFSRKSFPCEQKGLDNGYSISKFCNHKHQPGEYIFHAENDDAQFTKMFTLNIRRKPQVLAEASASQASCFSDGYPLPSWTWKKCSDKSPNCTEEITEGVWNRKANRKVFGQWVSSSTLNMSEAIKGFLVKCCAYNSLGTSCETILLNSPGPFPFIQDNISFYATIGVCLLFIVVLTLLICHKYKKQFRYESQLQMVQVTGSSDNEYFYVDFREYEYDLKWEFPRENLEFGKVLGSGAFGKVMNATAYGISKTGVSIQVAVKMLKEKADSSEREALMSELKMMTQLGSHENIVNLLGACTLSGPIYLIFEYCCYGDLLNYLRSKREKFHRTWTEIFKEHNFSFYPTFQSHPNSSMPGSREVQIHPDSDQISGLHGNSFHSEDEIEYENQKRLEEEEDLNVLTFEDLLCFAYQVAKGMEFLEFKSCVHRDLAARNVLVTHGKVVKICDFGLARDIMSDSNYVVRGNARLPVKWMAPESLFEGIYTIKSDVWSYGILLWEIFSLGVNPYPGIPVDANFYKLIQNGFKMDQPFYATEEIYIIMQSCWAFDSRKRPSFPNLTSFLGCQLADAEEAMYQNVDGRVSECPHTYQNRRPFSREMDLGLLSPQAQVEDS
Sequence of p38delta (O15264 whole entry): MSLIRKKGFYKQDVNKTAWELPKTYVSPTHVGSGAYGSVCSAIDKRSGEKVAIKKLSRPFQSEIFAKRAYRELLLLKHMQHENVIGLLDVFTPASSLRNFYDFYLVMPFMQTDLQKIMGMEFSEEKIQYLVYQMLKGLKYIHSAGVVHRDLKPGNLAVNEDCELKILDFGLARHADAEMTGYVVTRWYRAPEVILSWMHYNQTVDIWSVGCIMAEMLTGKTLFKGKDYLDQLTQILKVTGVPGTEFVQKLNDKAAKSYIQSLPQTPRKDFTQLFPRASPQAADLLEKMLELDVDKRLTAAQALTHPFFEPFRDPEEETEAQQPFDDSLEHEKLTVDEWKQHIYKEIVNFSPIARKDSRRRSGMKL
T12 sequence (P54760 16-987): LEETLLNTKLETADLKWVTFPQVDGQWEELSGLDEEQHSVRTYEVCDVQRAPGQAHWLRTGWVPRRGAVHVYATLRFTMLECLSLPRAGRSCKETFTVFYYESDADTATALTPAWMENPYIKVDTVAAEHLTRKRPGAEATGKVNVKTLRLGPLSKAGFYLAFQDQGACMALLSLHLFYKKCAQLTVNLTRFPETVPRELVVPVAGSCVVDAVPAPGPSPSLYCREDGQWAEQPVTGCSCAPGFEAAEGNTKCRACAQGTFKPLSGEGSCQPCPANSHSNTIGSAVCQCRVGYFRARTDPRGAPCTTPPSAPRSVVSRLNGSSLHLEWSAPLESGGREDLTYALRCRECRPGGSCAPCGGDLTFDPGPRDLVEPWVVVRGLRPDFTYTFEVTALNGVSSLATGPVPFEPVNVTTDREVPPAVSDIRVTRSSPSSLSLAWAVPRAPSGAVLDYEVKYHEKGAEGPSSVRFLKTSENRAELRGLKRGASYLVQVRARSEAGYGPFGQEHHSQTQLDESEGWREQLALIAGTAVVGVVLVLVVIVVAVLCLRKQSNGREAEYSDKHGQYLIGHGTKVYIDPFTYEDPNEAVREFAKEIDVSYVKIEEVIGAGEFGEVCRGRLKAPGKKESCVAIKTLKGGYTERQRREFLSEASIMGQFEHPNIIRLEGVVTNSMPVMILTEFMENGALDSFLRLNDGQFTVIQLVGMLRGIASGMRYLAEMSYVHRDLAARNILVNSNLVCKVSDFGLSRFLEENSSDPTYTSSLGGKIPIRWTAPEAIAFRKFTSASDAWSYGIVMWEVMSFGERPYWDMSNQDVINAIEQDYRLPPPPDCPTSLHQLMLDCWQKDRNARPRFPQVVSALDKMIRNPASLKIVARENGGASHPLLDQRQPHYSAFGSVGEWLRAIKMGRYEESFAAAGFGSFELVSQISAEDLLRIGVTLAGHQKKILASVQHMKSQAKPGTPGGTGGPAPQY
T7 sequence (O14757 whole entry): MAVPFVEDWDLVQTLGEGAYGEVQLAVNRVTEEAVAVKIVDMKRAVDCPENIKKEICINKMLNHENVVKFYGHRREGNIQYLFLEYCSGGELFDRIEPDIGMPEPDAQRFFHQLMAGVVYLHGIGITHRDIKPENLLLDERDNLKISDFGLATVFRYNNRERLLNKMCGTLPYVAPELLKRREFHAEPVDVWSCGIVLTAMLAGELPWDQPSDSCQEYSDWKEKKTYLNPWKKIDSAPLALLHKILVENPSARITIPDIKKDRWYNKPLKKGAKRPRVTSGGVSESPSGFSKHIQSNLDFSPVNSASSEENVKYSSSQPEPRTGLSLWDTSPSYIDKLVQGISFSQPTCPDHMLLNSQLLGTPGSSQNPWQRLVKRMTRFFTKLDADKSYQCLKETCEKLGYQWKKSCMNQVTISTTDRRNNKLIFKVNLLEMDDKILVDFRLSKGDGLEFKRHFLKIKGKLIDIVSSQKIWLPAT
T8 sequence (P31749 whole entry): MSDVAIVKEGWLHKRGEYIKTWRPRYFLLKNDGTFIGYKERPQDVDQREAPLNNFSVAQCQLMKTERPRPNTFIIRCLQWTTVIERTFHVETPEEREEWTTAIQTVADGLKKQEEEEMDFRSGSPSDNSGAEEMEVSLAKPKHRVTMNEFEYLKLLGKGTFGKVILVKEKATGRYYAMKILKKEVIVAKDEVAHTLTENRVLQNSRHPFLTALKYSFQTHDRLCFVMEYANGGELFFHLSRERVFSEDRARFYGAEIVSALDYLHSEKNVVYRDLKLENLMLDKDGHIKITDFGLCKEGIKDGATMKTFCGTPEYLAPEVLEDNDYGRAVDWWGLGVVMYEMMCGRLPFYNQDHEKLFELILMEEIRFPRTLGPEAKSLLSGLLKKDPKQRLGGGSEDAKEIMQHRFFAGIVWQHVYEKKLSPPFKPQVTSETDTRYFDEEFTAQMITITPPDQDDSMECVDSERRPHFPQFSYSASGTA
T6 sequence (Q13882 whole entry): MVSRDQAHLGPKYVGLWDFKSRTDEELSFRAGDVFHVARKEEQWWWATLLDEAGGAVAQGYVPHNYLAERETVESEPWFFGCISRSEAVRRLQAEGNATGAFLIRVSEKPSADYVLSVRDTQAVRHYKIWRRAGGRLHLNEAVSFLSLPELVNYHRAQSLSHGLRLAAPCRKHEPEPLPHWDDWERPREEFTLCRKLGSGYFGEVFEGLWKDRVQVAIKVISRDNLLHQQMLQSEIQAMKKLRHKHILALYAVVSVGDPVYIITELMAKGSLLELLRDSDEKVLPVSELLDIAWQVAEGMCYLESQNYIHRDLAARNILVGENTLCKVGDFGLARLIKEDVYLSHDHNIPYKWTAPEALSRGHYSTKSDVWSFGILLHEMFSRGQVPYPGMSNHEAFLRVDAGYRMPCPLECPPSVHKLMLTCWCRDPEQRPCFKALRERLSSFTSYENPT

Work on O=C1Nc2ccccc2[C@@]12C[C@@H]2c1ccc2c(/C=C/c3ccncc3)n[nH]c2c1 (racemic) [Example A22, (1R*,2S*)-(E)-2-(3-(2-(pyridin-4-yl)vinyl)-1H-indazol-6-yl)spiro-[cyclo-propane-1,3′-indolin]-2′-one] yielded an inhibition at 10 µM (FLT-3) of 100%, an inhibition at 10 µM (JNK 2) of 32% and an inhibition at 10 µM (PDK1) of 69%. It also gave an inhibition at 10 µM (CHK2) of 4%, an inhibition at 10 µM (RSK2) of 48% and an inhibition at 10 µM (PKA) of -6%. The inhibition at 10 µM (c-Met) was 97%, the inhibition at 10 µM (Lyn) was 99% and the inhibition at 10 µM (p38delta) was -22%. The inhibition at 10 µM (MAPKAPK2) was 4%, the inhibition at 10 µM (ERK (P42mapk)) was 11% and the inhibition at 10 µM (Ret) was 99%. It also gave an inhibition at 10 µM (PKCbeta 2) of 11%, an inhibition at 10 µM (BMX (Etk)) of 71% and an inhibition at 10 µM (CDC2/CDK1 (cycB)) of 93%. For the same compound, the inhibition at 10 µM (Lck) was 97%, the inhibition at 10 µM (Brk) was 41% and the inhibition at 10 µM (CHK1) was 37%. For the same compound, the inhibition at 10 µM (Fyn) was 87%, the inhibition at 10 µM (Akt1/PKBalpha) was -1% and the inhibition at 10 µM (PKCbeta 1) was 0%. For the same compound, the inhibition at 10 µM (p38gamma) was -15%, the inhibition at 10 µM (CSK) was 99% and the inhibition at 10 µM (IRK (InsR)) was 21%. It also gave an inhibition at 10 µM (TRKA) of 100%, an inhibition at 10 µM (IGF1R) of 22% and an inhibition at 10 µM (PKCgamma) of 8%. The inhibition at 10 µM (PKCalpha) was 7%, the inhibition at 10 µM (MEK1/MAP2K1) was 12% and the inhibition at 10 µM (Src) was 26%. It also gave an inhibition at 10 µM (Abl) of 97%, an inhibition at 10 µM (EphB4) of 99% and an inhibition at 10 µM (CaMK4) of -8%. For the same compound, the inhibition at 10 µM (FGFR4) was 56%, the inhibition at 10 µM (PDGFRbeta) was 88% and the inhibition at 10 µM (ERK1) was 8%. It also gave an inhibition at 10 µM (p38alpha) of 32%, an inhibition at 10 µM (ROCK2) of 88% and an inhibition at 10 µM (KDR (VEGFR2)) of 98%. For the same compound, the “anti-angiogenic effect (tube formation, % of control tube count)” value (HUV-EC-C cells) was “anti-agiogenic effects at submicromolar concentrations”.

For CN(C)Cc1ccc(/C=C/c2n[nH]c3cc([C@@H]4C[C@]45C(=O)Nc4ccccc45)ccc23)cc1 (racemic) [Example A26, (1R*,2R*)-(E)-2-(3-(4-((dimethylamino)methyl)styryl)-1H-indazol-6-yl)spiro[cyclopropane-1,3′-indolin]-2′-one 2,2,2-trifluoroacetate], the GI50 [1] was 1000 to 10000 nM, the GI50 ([2]; read-out: Cell Line GI50 Range SW-620, SW620 colon cancer cell line) was 100 to 1000 nM and the inhibition at 10 µM (FLT-3) was 102%. The “% Inhibition @ 10 uM” value (AMPKalpha) was 69% and the inhibition at 10 µM (KDR (VEGFR2)) was 58%.

For COc1ccc2c(c1)[C@@]1(C[C@@H]1c1ccc3c(/C=C/c4ccc(N5CCN(C(C)C)CC5)cc4)n[nH]c3c1)C(=O)N2 (racemic) [Example A189, (1R*,2S*)-(E)-2-(3-(4-(4-isopropylpiperazin-1-yl)styryl)-1H-indazol-6-yl)-5′-methoxyspiro[cyclopropane-1,3′-indolin]-2′-one 2,2,2-trifluoroacetate], the GI50 [3] was less than 100 nM, the GI50 ([1]; HCC1954 basal breast cancer cell line, 5 days culture, SRB) was less than 100 nM and the GI50 ([2]; SW620 colon cancer cell line, read-out: Cell Line GI50 Range SW-620) was less than 100 nM. It also gave a GI50 [4] of less than 100 nM, a GI50 [5] of less than 100 nM and a GI50 [6] of 1000 to 10000 nM.
